In US7563567B1, “Use of ECIST microarrays in an integrated method for assessing DNA methylation, gene expression and histone acetylation” (The Curators of the Univeristy of Missouri of Columbia, priority 2002, dated 2009):

What was measured:
CP70 cells [1] = assay: Expression microarray analysis (ECIST panel, triple analysis); assay type: cell-based, human; settings: for number of Group 1 (hypermethylated) loci with increased expression: FIG. 20D; for percent of ECIST loci up-regulated 4-fold or greater / total number of ECISTs up-regulated 4-fold or greater: of 1507 loci, DAC 0.5 μM 4 days, TSA 0.5 μM 12 h
BIK gene = settings: cited from earlier work
CP70 cells [2] = assay: Semi-quantitative RT-PCR; assay type: cell-based, human; settings: for HSPA.2 expression (RT-PCR): FIG. 21 row 1, no expression in untreated cells; for expression of eight Group 2 loci (RT-PCR): FIGS. 22A, 22B, unmethylated loci
MDA-MB-231 cells [3] = assay: RT-PCR verification of ECIST loci responsive to demethylation; assay type: cell-based, human
MDA-MB-231 cells [4] = assay: ECIST expression microarray, deoxyC-treated vs untreated cells; assay type: cell-based, human
[5] = 0.75 μM, 4 days, among 1,162 ECISTs
[6] = average normalized ratio, 0.75 μM treated vs untreated

CC(/C=C/C(=O)NO)=C\[C@@H](C)C(=O)c1ccc(N(C)C)cc1 [TSA, trichostatin A]
expression of Group 2a genes (unmethylated promoters) (CP70 cells [1]): increased expression
number of Group 1 (hypermethylated) loci with increased expression (CP70 cells [1]): No significant change in expression
percent of ECIST loci up-regulated 4-fold or greater (CP70 cells [1]): 1.1%
total number of ECISTs up-regulated 4-fold or greater (CP70 cells [1]): 17
induction of the BIK gene (BIK gene; Suzuki et al., cell line not stated): induced in a methylation-independent manner
HSPA.2 expression (RT-PCR) (CP70 cells [2]): remained unchanged
expression of eight Group 2 loci (RT-PCR) (CP70 cells [2]): Increased expression of some of these loci

Nc1ncn([C@H]2C[C@H](O)[C@@H](CO)O2)c(=O)n1 [DAC, 5-aza-2′-deoxycytidine]
expression of CYP27B1, HSPA2, TTF-1, FLJ10466 and EST183864 by RT-PCR (MDA-MB-231 cells [3]; 0.75 μM treated vs untreated, FIG. 17A): reactivated
expression levels of CpG12F10, MP2A3 and MP3D7 by RT-PCR (MDA-MB-231 cells [3]; treated relative to untreated cells, loci not hypermethylated, FIG. 17B): increased
expression of Group 2a genes (unmethylated promoters) (CP70 cells [1]): not by DAC alone
number of Group 1 (hypermethylated) loci with increased expression (CP70 cells [1]): 11
percent of ECIST loci up-regulated 4-fold or greater (CP70 cells [1]): 1.9%
total number of ECISTs up-regulated 4-fold or greater (CP70 cells [1]): 29
time by which BIK expression returned to control levels (BIK gene; human lung cancer cell line, after treatment): ≤ 72 h
induction of the apoptosis promoting factor BIK (BIK gene; human lung cancer cell line): early induction
HSPA.2 expression (RT-PCR) (CP70 cells [2]): increased
expression of eight Group 2 loci (RT-PCR) (CP70 cells [2]): Increased expression of some of these loci
number of hypermethylated ECIST loci whose transcripts can be reactivated (MDA-MB-231 cells [4]; 0.75 μM): 30
number of hypermethylated ECIST loci whose transcripts could not be reactivated (or up-regulated) (MDA-MB-231 cells [4]; 0.75 μM): 189
number of loci up-regulated in response to demethylation but not associated with CpG island hypermethylation (MDA-MB-231 cells [4]; 0.75 μM): 96
down-regulated ECIST loci (SAM analysis) (MDA-MB-231 cells [4]; [5]): No down-regulated loci were identified
number of statistically significant up-regulated ECIST loci (SAM, false-positive rate 1%) (MDA-MB-231 cells [4]; [5]): 126
Cy5/Cy3 Expression, CpG5B6 (CYP27B1) (MDA-MB-231 cells [4]; [6]): 2.7
Cy5/Cy3 Expression, CpG6B6 (dJ631M13.5) (MDA-MB-231 cells [4]; [6]): 2.6
Cy5/Cy3 Expression, CpG15E2 (MDA-MB-231 cells [4]; [6]): 3.3
Cy5/Cy3 Expression, CpG21G11 (MDA-MB-231 cells [4]; [6]): 2.9
Cy5/Cy3 Expression, CpG32H12 (MDA-MB-231 cells [4]; [6]): 2.6
Cy5/Cy3 Expression, CpG65A1 (TNS) (MDA-MB-231 cells [4]; [6]): 4.3
Cy5/Cy3 Expression, CpG65C10 (TBX4) (MDA-MB-231 cells [4]; [6]): 4.7
Cy5/Cy3 Expression, DL2F9 (ERCC-1) (MDA-MB-231 cells [4]; [6]): 3.8
Cy5/Cy3 Expression, MP1F6 (LOC84661) (MDA-MB-231 cells [4]; [6]): 2.1
Cy5/Cy3 Expression, MP2F1 (H4FJ) (MDA-MB-231 cells [4]; [6]): 3.2
Cy5/Cy3 Expression, MP2F10 (MDA-MB-231 cells [4]; [6]): 3.2
Cy5/Cy3 Expression, PY1H8 (PSMB4) (MDA-MB-231 cells [4]; [6]): 2.1
Cy5/Cy3 Expression, PY2F1 (FLJ10466) (MDA-MB-231 cells [4]; [6]): 3.2
Cy5/Cy3 Expression, PY3D3 (EST AI023535) (MDA-MB-231 cells [4]; [6]): 2.4
Cy5/Cy3 Expression, PY3D6 (EST BI518683) (MDA-MB-231 cells [4]; [6]): 2.0
Cy5/Cy3 Expression, PY3F2 (HSRN04) (MDA-MB-231 cells [4]; [6]): 2.0
Cy5/Cy3 Expression, SC2C3 (EST BE502068) (MDA-MB-231 cells [4]; [6]): 4.9
Cy5/Cy3 Expression, SC8F2 (RPS16) (MDA-MB-231 cells [4]; [6]): 2.0
Cy5/Cy3 Expression, SC12A2 (SAAS) (MDA-MB-231 cells [4]; [6]): 2.2
Cy5/Cy3 Expression, SC13D6 (EST183864) (MDA-MB-231 cells [4]; [6]): 2.1
Cy5/Cy3 Expression, SC15E7 (MDA-MB-231 cells [4]; [6]): 4.0
Cy5/Cy3 Expression, SC15H6 (H2BFR) (MDA-MB-231 cells [4]; [6]): 2.6
Cy5/Cy3 Expression, SC19F1 (EST BE838797) (MDA-MB-231 cells [4]; [6]): 2.7
Cy5/Cy3 Expression, SC20G3 (HOXD3) (MDA-MB-231 cells [4]; [6]): 2.3
Cy5/Cy3 Expression, SC21A8 (U3B2) (MDA-MB-231 cells [4]; [6]): 3.2
Cy5/Cy3 Expression, SC21G11 (HSPA2) (MDA-MB-231 cells [4]; [6]): 5.4
Cy5/Cy3 Expression, SC40C8 (H2BFG) (MDA-MB-231 cells [4]; [6]): 2.7
Cy5/Cy3 Expression, SC77F6 (TTF-1) (MDA-MB-231 cells [4]; [6]): 3.8
Cy5/Cy3 Expression, SC87E7 (EST AA365852) (MDA-MB-231 cells [4]; [6]): 2.4
Cy5/Cy3 Expression, SC89F2 (HAGE) (MDA-MB-231 cells [4]; [6]): 14.6
